Source: ChEMBL document CHEMBL4765362, “Thirty Years of HDAC Inhibitors: 2020 Insight and Hindsight” (J Med Chem, 2020)
Values belong to the compound of their own block, whether it stands above or below them.

How the values were obtained:
[1] = target: Histone deacetylase 3/Nuclear receptor corepressor 2 (HDAC3/NCoR2) (Homo sapiens, UniProt O15379); test: Inhibition of human full length recombinant HDAC3/ NcoR2 using p53 (379 to 382 residues) (RHKK(Ac)AMC) as substrate preincubated for 5 to 10 mins followed by substrate addition and measured after 2 hrs by fluorescence method; type: protein-complex assay
Histone deacetylase 8 [2] = target: T1, Histone deacetylase 8 (Homo sapiens, UniProt Q9BY41); test: Inhibition of human full length recombinant HDAC8 using p53 (379 to 382 residues) (RHK(Ac)K(Ac)AMC as substrate preincubated for 5 to 10 mins followed by substrate addition and measured after 2 hrs by fluorescence method
T1 sequence (Q9BY41 whole entry): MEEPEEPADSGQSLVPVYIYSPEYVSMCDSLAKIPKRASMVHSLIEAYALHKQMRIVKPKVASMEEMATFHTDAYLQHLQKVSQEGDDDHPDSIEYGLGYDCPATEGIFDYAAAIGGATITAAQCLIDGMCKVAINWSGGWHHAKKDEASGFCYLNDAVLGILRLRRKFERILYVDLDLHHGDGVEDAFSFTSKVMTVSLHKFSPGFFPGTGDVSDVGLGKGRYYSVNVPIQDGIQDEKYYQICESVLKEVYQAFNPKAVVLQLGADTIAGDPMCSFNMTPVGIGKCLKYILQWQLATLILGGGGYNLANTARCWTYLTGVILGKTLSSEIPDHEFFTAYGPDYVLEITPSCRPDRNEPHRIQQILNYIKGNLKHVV

Histone deacetylase 5 [3] = target: T2, Histone deacetylase 5 (Homo sapiens, UniProt Q9UQL6); test: Inhibition of human full length recombinant HDAC5 using p53 (379 to 382 residues) Ac-LGK(TFA)-AMC as substrate preincubated for 5 to 10 mins followed by substrate addition and measured after 2 hrs by fluorescence method
Histone deacetylase 7 [4] = target: T3, Histone deacetylase 7 (Homo sapiens, UniProt Q8WUI4); test: Inhibition of human full length recombinant HDAC7 using p53 (379 to 382 residues) Ac-LGK(TFA)-AMC as substrate preincubated for 5 to 10 mins followed by substrate addition and measured after 2 hrs by fluorescence method
T3 sequence (Q8WUI4 whole entry): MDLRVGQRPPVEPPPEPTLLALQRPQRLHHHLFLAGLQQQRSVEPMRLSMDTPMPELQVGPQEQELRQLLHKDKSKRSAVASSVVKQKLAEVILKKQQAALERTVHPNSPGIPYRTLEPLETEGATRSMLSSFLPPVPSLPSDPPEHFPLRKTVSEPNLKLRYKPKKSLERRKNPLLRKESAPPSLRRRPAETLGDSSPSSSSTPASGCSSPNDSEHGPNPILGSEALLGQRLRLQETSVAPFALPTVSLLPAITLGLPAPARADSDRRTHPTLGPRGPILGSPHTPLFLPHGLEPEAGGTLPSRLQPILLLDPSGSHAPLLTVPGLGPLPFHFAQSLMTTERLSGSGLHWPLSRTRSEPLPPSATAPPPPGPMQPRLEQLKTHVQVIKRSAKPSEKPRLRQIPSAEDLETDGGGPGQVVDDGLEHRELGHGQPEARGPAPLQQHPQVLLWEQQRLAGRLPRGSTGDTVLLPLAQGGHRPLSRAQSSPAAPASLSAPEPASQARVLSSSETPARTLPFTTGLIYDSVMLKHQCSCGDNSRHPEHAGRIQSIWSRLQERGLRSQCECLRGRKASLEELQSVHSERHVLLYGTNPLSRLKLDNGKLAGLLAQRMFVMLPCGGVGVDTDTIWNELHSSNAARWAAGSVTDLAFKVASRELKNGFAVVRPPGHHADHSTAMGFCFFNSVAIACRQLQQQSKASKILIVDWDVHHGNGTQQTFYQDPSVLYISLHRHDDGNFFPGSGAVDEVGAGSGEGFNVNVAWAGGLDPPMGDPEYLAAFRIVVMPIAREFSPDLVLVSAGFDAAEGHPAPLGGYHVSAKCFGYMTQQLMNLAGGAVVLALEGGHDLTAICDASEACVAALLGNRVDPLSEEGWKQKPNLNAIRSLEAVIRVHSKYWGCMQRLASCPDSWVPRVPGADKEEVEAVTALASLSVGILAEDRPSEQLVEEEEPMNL

Histone deacetylase 9 [5] = target: T4, Histone deacetylase 9 (Homo sapiens, UniProt Q9UKV0); test: Inhibition of human full length recombinant HDAC9 using p53 (379 to 382 residues) Ac-LGK(TFA)-AMC as substrate preincubated for 5 to 10 mins followed by substrate addition and measured after 2 hrs by fluorescence method
[6] = target: T5, Polyamine deacetylase HDAC10 (Homo sapiens, UniProt Q969S8); test: Inhibition of human full length recombinant HDAC10 using p53 (379 to 382 residues) (RHKK(Ac)AMC) as substrate preincubated for 5 to 10 mins followed by substrate addition and measured after 2 hrs by fluorescence method
T5 sequence (Q969S8 whole entry): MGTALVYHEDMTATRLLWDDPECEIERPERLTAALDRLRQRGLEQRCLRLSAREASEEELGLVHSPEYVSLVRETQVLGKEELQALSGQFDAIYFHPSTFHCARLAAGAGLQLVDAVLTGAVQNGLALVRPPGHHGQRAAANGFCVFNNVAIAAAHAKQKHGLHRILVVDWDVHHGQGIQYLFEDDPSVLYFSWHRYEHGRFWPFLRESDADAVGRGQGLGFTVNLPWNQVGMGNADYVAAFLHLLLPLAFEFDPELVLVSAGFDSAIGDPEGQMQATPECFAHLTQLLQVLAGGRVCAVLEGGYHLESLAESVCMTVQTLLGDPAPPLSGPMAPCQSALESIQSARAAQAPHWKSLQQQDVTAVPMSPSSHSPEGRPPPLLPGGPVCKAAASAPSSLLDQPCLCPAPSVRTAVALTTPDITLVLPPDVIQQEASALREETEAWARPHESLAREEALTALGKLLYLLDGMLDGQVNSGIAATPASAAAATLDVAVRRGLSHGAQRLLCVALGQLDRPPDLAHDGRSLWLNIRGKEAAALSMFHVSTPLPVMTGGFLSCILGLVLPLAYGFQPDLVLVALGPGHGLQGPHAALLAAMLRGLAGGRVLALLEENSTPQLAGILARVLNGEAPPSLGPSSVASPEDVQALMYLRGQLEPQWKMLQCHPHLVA

Histone deacetylase 11 = target: T6, Histone deacetylase 11 (Homo sapiens, UniProt Q96DB2); test: Inhibition of human full length recombinant HDAC11 using p53 (379 to 382 residues) (RHKK(Ac)AMC) as substrate preincubated for 5 to 10 mins followed by substrate addition and measured after 2 hrs by fluorescence method
T6 sequence (Q96DB2 whole entry): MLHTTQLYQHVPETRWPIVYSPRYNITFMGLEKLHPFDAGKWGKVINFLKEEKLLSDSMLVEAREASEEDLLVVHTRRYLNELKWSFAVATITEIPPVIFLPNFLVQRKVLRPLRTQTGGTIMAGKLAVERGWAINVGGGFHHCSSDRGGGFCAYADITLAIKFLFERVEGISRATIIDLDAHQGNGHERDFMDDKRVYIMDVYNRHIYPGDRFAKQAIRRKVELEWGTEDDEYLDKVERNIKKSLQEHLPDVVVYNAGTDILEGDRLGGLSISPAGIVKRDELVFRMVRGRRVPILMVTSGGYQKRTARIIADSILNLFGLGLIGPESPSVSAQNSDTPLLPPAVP

Histone deacetylase 2 [7] = target: T7, Histone deacetylase 2 (Homo sapiens, UniProt Q92769)
Homo sapiens [8] = organism: Homo sapiens; test: Selectivity ratio of IC50 for human C-terminal His-tagged HDAC3 (1 to 428 residues)/human N-terminal GST-tagged NcoR2 (395 to 489 residues) expressed in sf9 cells to IC50 for HDAC6 (unknown origin)
Homo sapiens [9] = organism: Homo sapiens; test: Selectivity ratio of IC50 for HDAC1 (unknown origin) to IC50 for HDAC6 (unknown origin)
Homo sapiens [10] = organism: Homo sapiens; test: Selectivity ratio of IC50 for human HDAC2 expressed in Sf9 cells to IC50 for HDAC6 (unknown origin)
[11] = target: T8, Protein deacetylase HDAC6 (Homo sapiens, UniProt Q9UBN7); test: Inhibition of HDAC6 (unknown origin) using acetyl-lysine tripeptide substrate as substrate preincubated for 24 hrs followed substrate addition and shaken for 5 secs and measured over 30 mins
T8 sequence (Q9UBN7 whole entry): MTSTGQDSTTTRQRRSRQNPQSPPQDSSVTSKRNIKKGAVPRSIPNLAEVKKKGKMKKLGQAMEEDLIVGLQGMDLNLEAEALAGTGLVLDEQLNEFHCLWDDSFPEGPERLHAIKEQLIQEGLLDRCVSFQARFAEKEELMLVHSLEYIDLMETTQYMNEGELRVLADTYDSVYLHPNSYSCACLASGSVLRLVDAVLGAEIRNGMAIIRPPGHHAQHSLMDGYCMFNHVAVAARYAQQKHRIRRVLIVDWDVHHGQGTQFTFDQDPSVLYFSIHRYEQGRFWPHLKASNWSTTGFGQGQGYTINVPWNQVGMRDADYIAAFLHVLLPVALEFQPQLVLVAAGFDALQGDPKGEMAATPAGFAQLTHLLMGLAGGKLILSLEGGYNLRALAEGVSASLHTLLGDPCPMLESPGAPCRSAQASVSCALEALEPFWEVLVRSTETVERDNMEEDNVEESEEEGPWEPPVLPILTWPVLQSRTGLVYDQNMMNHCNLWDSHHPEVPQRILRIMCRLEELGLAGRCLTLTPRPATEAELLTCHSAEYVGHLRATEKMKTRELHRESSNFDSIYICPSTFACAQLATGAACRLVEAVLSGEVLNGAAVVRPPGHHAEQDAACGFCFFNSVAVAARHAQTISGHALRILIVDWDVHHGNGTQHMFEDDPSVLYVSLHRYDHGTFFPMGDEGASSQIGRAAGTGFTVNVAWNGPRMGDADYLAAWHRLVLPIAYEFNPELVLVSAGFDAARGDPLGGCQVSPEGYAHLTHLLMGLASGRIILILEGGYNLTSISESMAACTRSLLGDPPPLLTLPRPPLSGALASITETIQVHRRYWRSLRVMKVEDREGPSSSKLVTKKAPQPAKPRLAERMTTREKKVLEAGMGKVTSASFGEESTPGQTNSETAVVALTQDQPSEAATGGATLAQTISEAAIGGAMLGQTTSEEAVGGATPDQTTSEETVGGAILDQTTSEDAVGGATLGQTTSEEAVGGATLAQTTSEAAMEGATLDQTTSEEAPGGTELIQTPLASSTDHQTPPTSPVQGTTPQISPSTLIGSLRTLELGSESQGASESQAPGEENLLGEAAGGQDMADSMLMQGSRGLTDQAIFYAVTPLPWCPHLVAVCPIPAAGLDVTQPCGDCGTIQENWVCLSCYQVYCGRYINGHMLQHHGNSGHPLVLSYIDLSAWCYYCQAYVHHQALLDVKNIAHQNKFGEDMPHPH

Homo sapiens [12] = organism: Homo sapiens; test: Selectivity ratio of IC50 for human HDAC4 expressed in Sf9 cells to IC50 for HDAC6 (unknown origin)
Homo sapiens [13] = organism: Homo sapiens; test: Selectivity ratio of IC50 for human HDAC5 to IC50 for HDAC6 (unknown origin)
Homo sapiens [14] = organism: Homo sapiens; test: Selectivity ratio of IC50 for human N-terminal GST-tagged HDAC7 (518 to end residues) expressed in baculovirus infected sf9 cells to IC50 for HDAC6 (unknown origin)
Homo sapiens [15] = organism: Homo sapiens; test: Selectivity ratio of IC50 for C-terminal His-tagged human HDAC9 (604 to 1066 residues) expressed in baculovirus infected sf9 cells to IC50 for HDAC6 (unknown origin)
Homo sapiens [16] = organism: Homo sapiens; test: Selectivity ratio of IC50 for recombinant human C-terminal His-tagged HDAC8 expressed in baculovirus infected sf9 cells to IC50 for HDAC6 (unknown origin)
Histone deacetylase 1 = Histone deacetylase 1 (Homo sapiens, UniProt Q13547); test: Inhibition of HDAC1 (unknown origin) using carboxyfluorescein (FAM)-labeled acetylated peptide substrate preincubated for 3 hrs by microfluidic capillary electrophoresis
Histone deacetylase 2 [17] = target: T7, Histone deacetylase 2; test: Inhibition of human HDAC2 expressed in Sf9 cells using carboxyfluorescein (FAM)-labeled acetylated peptide substrate preincubated for 3 hrs by microfluidic capillary electrophoresis
Histone deacetylase 4 = Histone deacetylase 4 (Homo sapiens, UniProt P56524); test: Inhibition of human HDAC4 expressed in baculovirus infected sf9 cells using carboxyfluorescein (FAM)-labeled acetylated peptide substrate by microfluidic capillary electrophoresis
Histone deacetylase 5 [18] = target: T2, Histone deacetylase 5; test: Inhibition of human HDAC5 using carboxyfluorescein (FAM)-labeled acetylated peptide substrate by microfluidic capillary electrophoresis
[19] = target: T8, Protein deacetylase HDAC6; test: Inhibition of HDAC6 (unknown origin) using carboxyfluorescein (FAM)-labeled acetylated peptide substrate by microfluidic capillary electrophoresis
Histone deacetylase 7 [20] = target: T3, Histone deacetylase 7; test: Inhibition of human N-terminal GST-tagged HDAC7 (518 to end residues) expressed in baculovirus infected sf9 cells using carboxyfluorescein (FAM)-labeled acetylated peptide substrate by microfluidic capillary electrophoresis
Histone deacetylase 8 [21] = target: T1, Histone deacetylase 8; test: Inhibition of recombinant human C-terminal His-tagged HDAC8 expressed in baculovirus infected sf9 cells using carboxyfluorescein (FAM)-labeled acetylated peptide substrate by microfluidic capillary electrophoresis
Histone deacetylase 9 [22] = target: T4, Histone deacetylase 9; test: Inhibition of C-terminal His-tagged human HDAC9 (604 to 1066 residues) expressed in baculovirus infected sf9 cells using carboxyfluorescein (FAM)-labeled acetylated peptide substrate by microfluidic capillary electrophoresis

T4 sequence (Q9UKV0 whole entry, the tested form may be a part): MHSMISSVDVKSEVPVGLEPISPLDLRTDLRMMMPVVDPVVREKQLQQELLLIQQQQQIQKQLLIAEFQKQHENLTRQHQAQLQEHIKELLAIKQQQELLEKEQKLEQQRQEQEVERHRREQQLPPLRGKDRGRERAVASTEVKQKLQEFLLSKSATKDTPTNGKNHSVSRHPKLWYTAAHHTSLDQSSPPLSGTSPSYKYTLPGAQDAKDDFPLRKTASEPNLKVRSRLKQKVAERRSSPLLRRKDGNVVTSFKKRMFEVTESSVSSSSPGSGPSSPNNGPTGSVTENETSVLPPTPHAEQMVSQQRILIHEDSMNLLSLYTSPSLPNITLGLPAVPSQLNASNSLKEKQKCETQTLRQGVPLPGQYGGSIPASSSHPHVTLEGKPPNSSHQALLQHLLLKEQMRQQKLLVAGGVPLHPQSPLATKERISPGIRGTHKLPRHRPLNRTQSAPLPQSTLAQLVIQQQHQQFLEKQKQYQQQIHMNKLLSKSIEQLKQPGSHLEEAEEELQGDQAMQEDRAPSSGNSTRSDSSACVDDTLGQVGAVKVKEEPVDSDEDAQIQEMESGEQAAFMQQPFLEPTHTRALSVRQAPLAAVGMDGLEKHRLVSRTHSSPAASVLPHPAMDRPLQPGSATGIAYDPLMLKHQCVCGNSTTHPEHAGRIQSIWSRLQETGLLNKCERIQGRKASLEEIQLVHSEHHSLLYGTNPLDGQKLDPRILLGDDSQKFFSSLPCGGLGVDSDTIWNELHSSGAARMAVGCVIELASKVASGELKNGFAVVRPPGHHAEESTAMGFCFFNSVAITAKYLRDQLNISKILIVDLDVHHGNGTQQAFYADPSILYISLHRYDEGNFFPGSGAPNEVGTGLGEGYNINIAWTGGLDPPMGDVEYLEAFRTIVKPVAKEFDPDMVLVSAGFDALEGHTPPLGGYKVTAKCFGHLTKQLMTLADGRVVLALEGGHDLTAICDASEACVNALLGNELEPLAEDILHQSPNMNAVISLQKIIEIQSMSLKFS
T2 sequence (Q9UQL6 whole entry, the tested form may be a part): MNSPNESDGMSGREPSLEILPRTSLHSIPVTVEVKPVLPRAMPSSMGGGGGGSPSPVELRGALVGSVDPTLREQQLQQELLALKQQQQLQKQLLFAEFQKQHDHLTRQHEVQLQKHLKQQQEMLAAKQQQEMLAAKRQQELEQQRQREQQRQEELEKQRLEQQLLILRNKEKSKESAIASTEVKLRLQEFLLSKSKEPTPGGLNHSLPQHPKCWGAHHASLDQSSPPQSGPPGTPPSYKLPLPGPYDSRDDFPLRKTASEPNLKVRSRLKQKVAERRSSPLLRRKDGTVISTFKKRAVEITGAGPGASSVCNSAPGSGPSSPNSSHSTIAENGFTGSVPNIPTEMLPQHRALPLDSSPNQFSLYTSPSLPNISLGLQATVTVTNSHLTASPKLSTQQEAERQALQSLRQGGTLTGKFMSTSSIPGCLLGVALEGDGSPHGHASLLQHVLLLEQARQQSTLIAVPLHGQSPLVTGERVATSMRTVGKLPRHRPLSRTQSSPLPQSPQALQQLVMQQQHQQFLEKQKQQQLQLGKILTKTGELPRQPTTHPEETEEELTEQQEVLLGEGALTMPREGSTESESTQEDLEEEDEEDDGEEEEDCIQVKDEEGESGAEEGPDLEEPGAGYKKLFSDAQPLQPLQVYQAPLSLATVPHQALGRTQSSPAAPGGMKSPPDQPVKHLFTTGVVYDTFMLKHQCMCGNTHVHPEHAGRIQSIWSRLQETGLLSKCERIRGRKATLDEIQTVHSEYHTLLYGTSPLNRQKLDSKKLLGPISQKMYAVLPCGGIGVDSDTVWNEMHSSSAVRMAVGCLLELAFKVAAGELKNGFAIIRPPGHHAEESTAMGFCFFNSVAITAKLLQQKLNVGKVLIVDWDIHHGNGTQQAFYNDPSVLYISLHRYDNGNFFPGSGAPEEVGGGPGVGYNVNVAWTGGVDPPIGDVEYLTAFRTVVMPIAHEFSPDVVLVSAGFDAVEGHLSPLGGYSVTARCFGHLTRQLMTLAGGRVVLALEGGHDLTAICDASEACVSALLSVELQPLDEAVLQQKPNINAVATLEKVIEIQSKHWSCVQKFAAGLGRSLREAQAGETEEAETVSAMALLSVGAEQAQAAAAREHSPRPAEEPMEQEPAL
T7 sequence (Q92769 whole entry, the tested form may be a part): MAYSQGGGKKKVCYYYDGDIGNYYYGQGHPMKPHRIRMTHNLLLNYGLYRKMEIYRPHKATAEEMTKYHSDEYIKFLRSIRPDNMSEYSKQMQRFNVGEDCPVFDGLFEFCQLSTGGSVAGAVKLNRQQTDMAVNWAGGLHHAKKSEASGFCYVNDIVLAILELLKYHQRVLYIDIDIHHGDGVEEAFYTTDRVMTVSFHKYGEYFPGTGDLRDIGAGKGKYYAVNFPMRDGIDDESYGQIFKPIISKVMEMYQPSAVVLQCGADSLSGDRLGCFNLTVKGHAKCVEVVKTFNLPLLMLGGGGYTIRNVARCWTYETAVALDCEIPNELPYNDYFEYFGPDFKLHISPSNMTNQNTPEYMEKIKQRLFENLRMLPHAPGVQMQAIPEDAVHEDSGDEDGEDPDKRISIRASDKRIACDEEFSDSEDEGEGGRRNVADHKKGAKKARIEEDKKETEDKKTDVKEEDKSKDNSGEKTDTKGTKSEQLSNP
Histone deacetylase 1, sequence (Q13547 whole entry): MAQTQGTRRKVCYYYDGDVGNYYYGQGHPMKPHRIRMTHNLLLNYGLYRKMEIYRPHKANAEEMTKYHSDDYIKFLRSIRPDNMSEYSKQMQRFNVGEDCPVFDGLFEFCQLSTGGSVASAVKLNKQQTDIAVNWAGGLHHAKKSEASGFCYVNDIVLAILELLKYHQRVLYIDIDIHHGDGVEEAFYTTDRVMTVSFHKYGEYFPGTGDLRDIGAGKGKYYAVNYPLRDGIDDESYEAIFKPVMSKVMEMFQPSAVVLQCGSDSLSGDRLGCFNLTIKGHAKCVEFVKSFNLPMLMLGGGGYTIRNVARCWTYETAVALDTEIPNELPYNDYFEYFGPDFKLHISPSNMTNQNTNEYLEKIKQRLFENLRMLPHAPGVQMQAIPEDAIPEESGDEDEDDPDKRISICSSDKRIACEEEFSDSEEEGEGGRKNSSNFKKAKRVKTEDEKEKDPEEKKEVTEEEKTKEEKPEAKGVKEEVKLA
Histone deacetylase 4, sequence (P56524 whole entry): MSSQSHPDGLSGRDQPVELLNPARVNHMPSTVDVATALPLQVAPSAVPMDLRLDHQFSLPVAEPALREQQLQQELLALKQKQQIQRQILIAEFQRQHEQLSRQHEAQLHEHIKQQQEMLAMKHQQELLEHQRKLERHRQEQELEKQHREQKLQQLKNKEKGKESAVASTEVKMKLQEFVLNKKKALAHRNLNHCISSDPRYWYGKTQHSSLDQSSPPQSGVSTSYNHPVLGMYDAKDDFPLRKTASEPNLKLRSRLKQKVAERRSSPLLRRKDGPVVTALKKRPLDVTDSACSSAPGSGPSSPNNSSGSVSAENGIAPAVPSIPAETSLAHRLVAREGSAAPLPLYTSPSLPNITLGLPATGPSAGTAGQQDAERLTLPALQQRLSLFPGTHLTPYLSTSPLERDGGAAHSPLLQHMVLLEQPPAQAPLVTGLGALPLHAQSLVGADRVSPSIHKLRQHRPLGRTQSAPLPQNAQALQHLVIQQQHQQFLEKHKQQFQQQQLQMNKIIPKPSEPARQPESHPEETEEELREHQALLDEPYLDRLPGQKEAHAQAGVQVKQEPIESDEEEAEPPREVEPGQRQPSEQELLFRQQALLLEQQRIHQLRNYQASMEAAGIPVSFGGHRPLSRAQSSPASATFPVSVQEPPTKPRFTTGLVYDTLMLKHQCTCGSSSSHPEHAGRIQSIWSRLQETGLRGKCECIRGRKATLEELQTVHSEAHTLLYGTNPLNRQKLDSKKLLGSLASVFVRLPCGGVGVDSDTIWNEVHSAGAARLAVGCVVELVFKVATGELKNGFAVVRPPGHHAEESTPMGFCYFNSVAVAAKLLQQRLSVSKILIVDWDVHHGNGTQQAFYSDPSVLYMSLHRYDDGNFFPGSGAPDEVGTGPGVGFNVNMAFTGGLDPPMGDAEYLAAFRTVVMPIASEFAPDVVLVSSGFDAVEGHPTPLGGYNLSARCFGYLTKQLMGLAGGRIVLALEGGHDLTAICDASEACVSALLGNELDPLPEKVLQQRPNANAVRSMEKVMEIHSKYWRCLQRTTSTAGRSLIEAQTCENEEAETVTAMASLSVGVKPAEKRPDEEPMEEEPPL

IC50 [1]: 30 µM | IC50 (Histone deacetylase 8 [2]): 4 µM | IC50 (Histone deacetylase 5 [3]): 4 µM | IC50 (Histone deacetylase 7 [4]): 5 µM | IC50 (Histone deacetylase 9 [5]): 4 µM | IC50 [6]: 26 µM | IC50 (Histone deacetylase 11): 6 µM | IC50 (Histone deacetylase 2 [7]): 33 µM
Structure (SMILES): O=C(NO)c1ccc(CN2CCCc3cc(Cl)ccc32)cc1

Ratio IC50 (Homo sapiens [9]): > 250 | IC50 [11]: 0.003 µM | Ratio IC50 (Homo sapiens [13]): > 250
Structure (SMILES): O=C(NO)c1cnc(C2(c3ccccc3)CCC(F)(F)CC2)nc1
Ratio IC50 (Homo sapiens [8]): > 250 | Ratio IC50 (Homo sapiens [10]): > 250 | Ratio IC50 (Homo sapiens [12]): > 250 | Ratio IC50 (Homo sapiens [14]): > 250 | Ratio IC50 (Homo sapiens [15]): > 250 | Ratio IC50 (Homo sapiens [16]): > 250

IC50 (Histone deacetylase 1): 1 µM | IC50 (Histone deacetylase 2 [17]): 1 µM | IC50 (Histone deacetylase 4): > 30 µM | IC50 (Histone deacetylase 5 [18]): > 30 µM | IC50 [19]: > 30 µM | IC50 (Histone deacetylase 7 [20]): > 30 µM | IC50 (Histone deacetylase 8 [21]): > 30 µM | IC50 (Histone deacetylase 9 [22]): > 30 µM
Structure (SMILES): CC(=O)Nc1ccc(C(=O)Nc2ccc(F)cc2N)cc1
